Target: T1, μ opiate receptor (MOR) (Rattus norvegicus, UniProt P33535)
T1 construct: from tissue; host or cells: striatal tissue (membrane preparation)
Assay: MOR agonist activity, [35S]GTPγS binding assay using striatal membranes
Format: biochemical
Conditions: for [35S]GTPγS binding to Gαo, FLNA-binding compound as agonist 0.1 μM: 0.1 μM compound; for [35S]GTPγS binding to Gαo, FLNA-binding compound as agonist 0.1 μM / [35S]GTPγS binding to Gαo, FLNA-binding compound as agonist 1 μM: striatal membranes; for [35S]GTPγS binding to Gαo, FLNA-binding compound as agonist 1 μM + BFNA: 1 μM compound + 1 μM β-funaltrexamine; for [35S]GTPγS binding to Gαo, FLNA-binding compound as agonist 1 μM: 1 μM compound
Procedure: To assess the μ opiate receptor (MOR) agonist activity of positive compounds from the FLNA screening, compounds were tested in a [^35S]GTPγS binding assay using striatal membranes.
Striatal tissue was homogenized in 10 volumes of ice cold 25 mM HEPES buffer, pH 7.4, which contained 1 mM EGTA, 100 mM sucrose, 50 μg/ml leupeptin, 0.04 mM PMSF, 2 μg/ml soybean trypsin inhibitor and 0.2% 2-mercaptoethanol. The homogenates were centrifuged at 800×g for 5 minutes and the supernatants were centrifuged at 49,000×g for 20 minutes. The resulting pellets were suspended in 10 volume of reaction buffer, which contained 25 mM HEPES, pH 7.5, 100 mM NaCl, 50 μg/ml leupeptin, 2 μg/ml soybean trypsin inhibitor, 0.04 mM PMSF and 0.02% […].
The resultant striatal membrane preparation (200 μg) was admixed and maintained (incubated) at 30° C. for 5 minutes in reaction buffer as above that additionally contained 1 mM MgCl2 and 0.5 nM [^35S]GTPγS (0.1 μCi/assay, PerkinElmer Life and Analytical Sciences) in a total volume of 250 μl and continued for 5 minutes in the absence or presence of 0.1-10 μM of an assayed compound of interest. The reaction was terminated by dilution with 750 μl of ice-cold reaction buffer that contained 20 mM MgCl2 and 1 mM EGTA and immediate centrifugation at 16,000×g for 5 minutes.
The resulting pellet was solubilized by sonicating for 10 seconds in 0.5 ml of immunoprecipitation buffer containing 0.5% digitonin, 0.2% sodium cholate and 0.5% NP-40. Normal rabbit serum (1 μl) was added to 1 ml of lysate and incubated at 25° C. for 30 minutes. Nonspecific immune complexes were removed by incubation with 25 μl of protein A/G-conjugated agarose beads at 25° C. for 30 minutes followed by centrifugation at 5,000×g at 4° C. for 5 minutes. The supernatant was divided and separately incubated at 25° C. for 30 minutes with antibodies raised against Gao proteins (1:1,000 dilutions).
The immunocomplexes so formed were collected by incubation at 25° C. for 30 minutes with 40 μl of agarose-conjugated protein A/G beads and centrifugation at 5,000×g at 4° C. for 5 minutes. The pellet was washed and suspended in buffer containing 50 mM Tris-HCl, pH 8.0, and 1% NP-40. The radioactivity in the suspension was determined by liquid scintillation spectrometry. […] DAMGO (H-Tyr-D-Ala-Gly-N-MePhe-Gly-OH; 1 or 10 μM) was used as a positive control.

T1 sequence (P33535 whole entry): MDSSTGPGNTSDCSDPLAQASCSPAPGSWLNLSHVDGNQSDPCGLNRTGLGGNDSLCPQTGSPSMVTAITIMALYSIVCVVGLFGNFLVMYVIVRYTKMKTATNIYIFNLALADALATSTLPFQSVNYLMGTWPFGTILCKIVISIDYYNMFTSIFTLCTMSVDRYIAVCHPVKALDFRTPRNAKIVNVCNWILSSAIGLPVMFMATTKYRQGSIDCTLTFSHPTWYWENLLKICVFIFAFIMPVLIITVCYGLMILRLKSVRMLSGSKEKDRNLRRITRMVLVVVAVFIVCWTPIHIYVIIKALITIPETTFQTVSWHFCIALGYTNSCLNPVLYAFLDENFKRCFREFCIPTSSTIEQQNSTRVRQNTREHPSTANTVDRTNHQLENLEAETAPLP

Structure (SMILES)	[35S]GTPγS binding to Gαo, FLNA-binding compound as agonist 0.1 μM [%]	[35S]GTPγS binding to Gαo, FLNA-binding compound as agonist 1 μM + BFNA [%]	[35S]GTPγS binding to Gαo, FLNA-binding compound as agonist 1 μM [%]	% DAMGO + BFNA (relative to DAMGO + BFNA) [%]	% DAMGO (0.1 μM) (relative to DAMGO, 0.1 μM) [%]	% DAMGO (1 μM) (relative to DAMGO, 1 μM) [%]
CC1CCC(C(C)C)C(OCC(O)CN(C(C)C)C(C)C)C1 (stereo not drawn) [Compound A0037]	177.9	104.6	236.2	141.5	90.7	85.6
CC1CCC(C(C)C)C(OCC(CN2CC(C)OC(C)C2)NCc2ccccc2)C1 (stereo not drawn) [Compound A0033]	155.8	118.2	254.6	–	–	–
CC1CCC(C(C)C)C(OCC(O)CN2CCCc3ccccc32)C1 (stereo not drawn) [Compound A0068]	73.9	98.1	110.4	–	–	–
CC1CCC(C(C)C)C(OCC(O)CN2CCC(=O)CC2)C1 (stereo not drawn) [Compound A0060]	99.7	14.3	158.2	–	–	–
CC1CN(CC(O)COc2ccccc2Br)CC(C)O1 (stereo not drawn) [Compound A0043]	183.3	89.1	223.8	–	–	–
COc1ccc(OCC(O)CN2CC(C)OC(C)C2)cc1 (stereo not drawn) [Compound A0048]	233.7	167.2	302.9	–	–	–
CC1CCC(C(C)C)C(OCC(O)CN2CCCCCC2)C1 (stereo not drawn) [Compound A0013]	102.1	86.1	164.8	–	–	–
COc1c2c(cc3c1OCO3)CCN(CC(O)COC1CC(C)CCC1C(C)C)C2 (stereo not drawn) [Compound A0061]	110.3	10.7	197.1	–	–	–
COc1ccc(OCC(O)CN2CCc3ccccc3C2)cc1 (stereo not drawn) [Compound A0053]	78.5	15.1	118.2	–	–	–
CC1CCC(C(C)C)C(OCC(O)CN2CC(C)CC(C)C2)C1 (stereo not drawn) [Compound A0008]	163.8	133.9	235.0	–	–	–
CC1CN(CC(O)COc2cccc(N(C)C)c2)CC(C)O1 (stereo not drawn) [Compound A0042]	147.5	89.5	233.1	–	–	–
CC1CN(CC(O)COc2ccc(Br)c(Cl)c2)CC(C)O1 (stereo not drawn) [Compound A0045]	143.9	99.2	274.2	–	–	–
CC(=O)c1ccc(OCC(O)CN2CC(C)OC(C)C2)cc1 (stereo not drawn) [Compound A0044]	176.2	134.7	209.1	–	–	–
CC1CN(CC(O)COc2cccc(C(F)(F)F)c2)CC(C)O1 (stereo not drawn) [Compound A0051]	290.4	211.6	386.6	–	–	–
OC(COc1ccc(Br)c(F)c1)CN1CCCCC1 (stereo not drawn) [Compound A0058]	70.7	59.9	244.3	–	–	–
CC1CCC(C(C)C)C(OCC(O)Cn2ccc3ccccc32)C1 (stereo not drawn) [Compound A0078]	250.5	147.8	289.9	–	–	–

— patent publication US20100279997A1, “ANALGESIC THAT BINDS FILAMIN A” (priority 2009, published 2010)
